According to ChEMBL document CHEMBL5500393, “Discovery and Optimization of Novel SaFabI Inhibitors as Specific Therapeutic Agents for MRSA Infection” (J Med Chem, 2024):
Converted amounts (≈) assume the structure as drawn.

Key:
Pseudomonas aeruginosa = experiment: Antimicrobial activity against Pseudomonas aeruginosa PAO1 measured after 24 hrs by CLSI protocol based microdilution method; assay type: functional
Acinetobacter baumannii = experiment: Antimicrobial activity against Acinetobacter baumannii ATCC19606 measured after 24 hrs by CLSI protocol based microdilution method; assay type: functional
Escherichia coli = experiment: Antimicrobial activity against Escherichia coli ATCC25922 measured after 24 hrs by CLSI protocol based microdilution method; assay type: functional
Staphylococcus aureus [1] = experiment: Antimicrobial activity against methicillin-susceptible Staphylococcus aureus ATCC25923 measured after 24 hrs by CLSI protocol based microdilution method; assay type: functional
Enterococcus faecium = experiment: Antimicrobial activity against Enterococcus faecium ATCC19434 measured after 24 hrs by CLSI protocol based microdilution method; assay type: functional
Staphylococcus aureus [2] = experiment: Antimicrobial activity against […] Staphylococcus aureus ATCC33591 measured after 24 hrs by CLSI protocol based microdilution method; assay type: functional
[3] = target: T1, Enoyl-[acyl-carrier-protein] reductase [NADPH] FabI (Staphylococcus aureus, UniProt Q6GI75); experiment: Inhibition of N-terminal his 6 tagged Staphylococcus aureus Fabi (1 to […] residues) expressed in Escherichia coli BL21 incubated for 30 mins in presence of NADPH by fluorescence based microplate reader analysis
T1 sequence (Q6GI75 whole entry): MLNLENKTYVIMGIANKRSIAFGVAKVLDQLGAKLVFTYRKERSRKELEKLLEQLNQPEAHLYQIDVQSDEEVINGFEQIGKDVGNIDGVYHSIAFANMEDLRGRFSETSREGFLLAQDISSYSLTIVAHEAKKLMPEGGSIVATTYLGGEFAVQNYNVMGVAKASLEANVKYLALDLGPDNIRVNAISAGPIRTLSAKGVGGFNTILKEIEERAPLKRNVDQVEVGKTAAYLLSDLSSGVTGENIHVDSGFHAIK

Staphylococcus aureus [4] = experiment: Antimicrobial activity against […] Staphylococcus aureus USA300 measured after 24 hrs by CLSI protocol based microdilution method; assay type: functional
Staphylococcus aureus [5] = experiment: Antimicrobial activity against […] Staphylococcus aureus NRS271 measured after 24 hrs by CLSI protocol based microdilution method; assay type: functional
[6] = target: T2, Enoyl-[acyl-carrier-protein] reductase [NADPH] FabI (Staphylococcus aureus) (UniProt Q6GI75); experiment: Inhibition of N-terminal his 6 tagged Staphylococcus aureus Fabi (1 to […] residues) expressed in Escherichia coli BL21 at 1 uM incubated for 30 mins in presence of NADPH by fluorescence based microplate reader analysis relative to control
T2 sequence (whole entry): T1 sequence (Q6GI75 whole entry)

Enterococcus faecalis = experiment: Antimicrobial activity against Enterococcus faecalis ATCC29212 measured after 24 hrs by CLSI protocol based microdilution method; assay type: functional
[7] = target: T2, Enoyl-[acyl-carrier-protein] reductase [NADPH] FabI (Staphylococcus aureus); experiment: Inhibition of N-terminal his 6 tagged Staphylococcus aureus Fabi (1 to […] residues) expressed in Escherichia coli BL21 at 10 uM incubated for 30 mins in presence of NADPH by fluorescence based microplate reader analysis relative to control
Staphylococcus aureus [8] = experiment: Antimicrobial activity against […] Staphylococcus aureus ATCC43300 measured after 24 hrs by CLSI protocol based microdilution method; assay type: functional
Candida albicans = experiment: Antimicrobial activity against Candida albicans SC5314 measured after 48 hrs by CLSI protocol based microdilution method; assay type: functional
Staphylococcus aureus [9] = experiment: Antimicrobial activity against methicillin-susceptible Staphylococcus aureus ATCC29213 measured after 24 hrs by CLSI protocol based microdilution method; assay type: functional

Row | SMILES | MIC (Pseudomonas aeruginosa) [mg/L] | MIC (Acinetobacter baumannii) [mg/L] | MIC (Escherichia coli) [mg/L] | MIC (Staphylococcus aureus [1]) [mg/L] | MIC (Enterococcus faecium) [mg/L] | MIC (Staphylococcus aureus [2]) [mg/L] | IC50 [3] [µM] | MIC (Staphylococcus aureus [4]) [mg/L] | MIC (Staphylococcus aureus [5]) [mg/L] | inhibition [6] [%] | MIC (Enterococcus faecalis) [mg/L] | inhibition [7] [%] | MIC (Staphylococcus aureus [8]) [mg/L] | MIC (Candida albicans) [mg/L] | MIC (Staphylococcus aureus [9]) [mg/L]
1 | Cc1c(O)cccc1N1CC(c2nc3ccccc3n2C)CC1=O (stereo not given) | > 32 | > 32 | > 32 | 8 (≈ 24.9 µM) | > 32 | 4 (≈ 12.4 µM) | 0.65 | 8 (≈ 24.9 µM) | 8 (≈ 24.9 µM) | 61.7 | > 32 | 96.9 | 8 (≈ 24.9 µM) | > 32 | 8 (≈ 24.9 µM)
2 | Cc1cccc(N2CC(c3nc4ccccc4n3C)CC2=O)c1Cl (stereo not given) | > 32 | > 32 | > 32 | 16 (≈ 47.1 µM) | > 32 | 8 (≈ 23.5 µM) | 1.18 | 16 (≈ 47.1 µM) | 8 (≈ 23.5 µM) | 47.3 | > 32 | 95.2 | 8 (≈ 23.5 µM) | > 32 | 8 (≈ 23.5 µM)
3 | Cc1cccc(N2CC(c3nc4ccccc4n3C)CC2=O)c1Br (stereo not given) | > 32 | > 32 | > 32 | 8 (≈ 20.8 µM) | > 32 | 16 (≈ 41.6 µM) | 1.69 | 16 (≈ 41.6 µM) | 32 (≈ 83.3 µM) | 30.1 | > 32 | 92.6 | 32 (≈ 83.3 µM) | > 32 | 16 (≈ 41.6 µM)
4 | Cn1c(C2CC(=O)N(c3cccc(Cl)c3)C2)nc2ccccc21 (stereo not given) | > 32 | > 32 | > 32 | > 32 | > 32 | 32 (≈ 98.2 µM) | 3.53 | 32 (≈ 98.2 µM) | 32 (≈ 98.2 µM) | 12.8 | > 32 | 69.6 | > 32 | > 32 | 32 (≈ 98.2 µM)
5 | Cc1c(N2CC(c3nc4ccccc4n3C)CC2=O)cccc1[N+](=O)[O-] (stereo not given) | > 32 | > 32 | > 32 | 16 (≈ 45.7 µM) | > 32 | 16 (≈ 45.7 µM) | 1.52 | 16 (≈ 45.7 µM) | 32 (≈ 91.3 µM) | 42.8 | > 32 | 98 | 16 (≈ 45.7 µM) | > 32 | 8 (≈ 22.8 µM)
6 | Cn1c(C2CC(=O)N(c3cccc(F)c3F)C2)nc2ccccc21 (stereo not given) | > 32 | > 32 | > 32 | 32 (≈ 97.8 µM) | > 32 | 16 (≈ 48.9 µM) | 0.227 | 16 (≈ 48.9 µM) | 32 (≈ 97.8 µM) | 35.3 | > 32 | 91.8 | 32 (≈ 97.8 µM) | > 32 | 16 (≈ 48.9 µM)
7 | Cn1c(C2CC(=O)N(c3ccc(O)c(O)c3)C2)nc2ccccc21 (stereo not given) | > 32 | > 32 | > 32 | > 32 | > 32 | > 32 | 5.19 | > 32 | > 32 | 10.7 | > 32 | 70.4 | > 32 | > 32 | > 32
8 | Cc1c(Br)cccc1N1CC(c2nc3cc(F)c(F)cc3n2C)CC1=O (stereo not given) | > 32 | > 32 | > 32 | > 32 | > 32 | > 32 | 5.29 | > 32 | > 32 | 3.2 | > 32 | 66.7 | > 32 | > 32 | 32 (≈ 76.1 µM)
